{"source": "patent US20070111216A1", "about": "(priority 2004, published 2007)", "format_in_all_cases": "biochemical", "key": {"[1]": {"biological_target": "T1, E. coli RNA Polymerase Core Enzyme (Escherichia coli, UniProt P0A8T7+P0A8V2)", "T1 construct": "purchased EPICENTRE", "assay": "Rolling circle transcription on circular 45mer ssDNA monitored in real time (SYBR Gold) and by gel electrophoresis", "conditions": "20 μg/ml α-amanitin, 10 min preincubation at 37° C., 0.5 mM each NTP, about 1.5 hours (FIG. 4)", "experimental": "A single-stranded circularized 45mer DNA molecule having the same sequence as the circular 45mer used in Example 1 (Sequence I.D. No. 1) was obtained.\nA reaction mixture was prepared containing 0.5 units of E. coli RNA Polymerase Core Enzyme, and a reaction buffer. The reaction mixture was incubated in the presence of 1 μM rifampicin, 20 U TAGETIN (Epicentre Biotechnologies), or 20 μg/ml α-amanitin for 10 min at 37° C. Subsequently, 0.8 pmole of the circularized 45mer DNA oligomer were added to the reaction mixture followed by incubation for 5 min at 37° C. Then SYBR Gold (Molecular Probes), which had been diluted 1:20,000, was added. Subsequently, ATP, CTP, GTP and UTP were added such that the concentration of each NTP was 0.5 mM in the final reaction mixture. Fluorescence was measured for about 1.5 hours in an iCycler iQ real-time PCR detection system (Bio-Rad Laboratories) using 490 nm excitation and 530 nm emission wavelengths. Afterwards, the reaction products were analyzed by gel electrophoresis."}, "[2]": {"biological_target": "T2, E. coli RNA polymerase Holoenzyme (Escherichia coli, UniProt P0A8T7+P0A8V2)", "T2 construct": "purchased EPICENTRE", "T2 sequence (P0A8V2 whole entry)": "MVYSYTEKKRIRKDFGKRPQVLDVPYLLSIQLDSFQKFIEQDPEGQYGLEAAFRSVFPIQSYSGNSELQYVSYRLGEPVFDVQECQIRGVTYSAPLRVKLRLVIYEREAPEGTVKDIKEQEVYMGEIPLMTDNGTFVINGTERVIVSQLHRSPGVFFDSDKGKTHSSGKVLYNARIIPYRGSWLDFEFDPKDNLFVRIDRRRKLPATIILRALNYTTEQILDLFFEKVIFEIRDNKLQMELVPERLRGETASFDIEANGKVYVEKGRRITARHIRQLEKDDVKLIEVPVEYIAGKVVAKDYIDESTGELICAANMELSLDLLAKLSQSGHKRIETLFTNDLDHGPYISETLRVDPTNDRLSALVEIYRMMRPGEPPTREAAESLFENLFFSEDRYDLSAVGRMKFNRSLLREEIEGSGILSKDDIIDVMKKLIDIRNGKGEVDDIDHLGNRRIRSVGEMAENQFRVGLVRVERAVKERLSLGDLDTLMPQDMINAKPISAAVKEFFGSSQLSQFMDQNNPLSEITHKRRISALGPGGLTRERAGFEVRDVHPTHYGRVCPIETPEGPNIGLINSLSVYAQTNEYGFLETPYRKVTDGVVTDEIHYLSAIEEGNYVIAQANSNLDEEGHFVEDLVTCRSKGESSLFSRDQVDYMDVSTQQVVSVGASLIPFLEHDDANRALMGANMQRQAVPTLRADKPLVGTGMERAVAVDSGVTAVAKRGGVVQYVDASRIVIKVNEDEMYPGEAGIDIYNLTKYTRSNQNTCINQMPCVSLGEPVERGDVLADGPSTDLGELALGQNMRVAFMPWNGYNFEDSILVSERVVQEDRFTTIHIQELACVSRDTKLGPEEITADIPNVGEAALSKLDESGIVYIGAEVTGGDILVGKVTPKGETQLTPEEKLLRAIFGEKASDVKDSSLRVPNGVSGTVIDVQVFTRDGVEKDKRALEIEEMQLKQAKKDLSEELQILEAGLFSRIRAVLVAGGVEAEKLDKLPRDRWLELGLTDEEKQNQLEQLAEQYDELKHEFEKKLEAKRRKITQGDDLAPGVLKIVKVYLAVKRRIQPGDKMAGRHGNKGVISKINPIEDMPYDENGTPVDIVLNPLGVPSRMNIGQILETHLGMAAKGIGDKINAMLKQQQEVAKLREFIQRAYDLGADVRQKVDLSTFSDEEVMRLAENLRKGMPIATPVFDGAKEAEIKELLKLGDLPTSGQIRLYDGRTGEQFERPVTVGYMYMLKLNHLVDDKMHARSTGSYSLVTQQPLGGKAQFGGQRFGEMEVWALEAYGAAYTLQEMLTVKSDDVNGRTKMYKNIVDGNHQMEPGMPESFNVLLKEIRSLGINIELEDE", "T2 sequence (P0A8T7 whole entry)": "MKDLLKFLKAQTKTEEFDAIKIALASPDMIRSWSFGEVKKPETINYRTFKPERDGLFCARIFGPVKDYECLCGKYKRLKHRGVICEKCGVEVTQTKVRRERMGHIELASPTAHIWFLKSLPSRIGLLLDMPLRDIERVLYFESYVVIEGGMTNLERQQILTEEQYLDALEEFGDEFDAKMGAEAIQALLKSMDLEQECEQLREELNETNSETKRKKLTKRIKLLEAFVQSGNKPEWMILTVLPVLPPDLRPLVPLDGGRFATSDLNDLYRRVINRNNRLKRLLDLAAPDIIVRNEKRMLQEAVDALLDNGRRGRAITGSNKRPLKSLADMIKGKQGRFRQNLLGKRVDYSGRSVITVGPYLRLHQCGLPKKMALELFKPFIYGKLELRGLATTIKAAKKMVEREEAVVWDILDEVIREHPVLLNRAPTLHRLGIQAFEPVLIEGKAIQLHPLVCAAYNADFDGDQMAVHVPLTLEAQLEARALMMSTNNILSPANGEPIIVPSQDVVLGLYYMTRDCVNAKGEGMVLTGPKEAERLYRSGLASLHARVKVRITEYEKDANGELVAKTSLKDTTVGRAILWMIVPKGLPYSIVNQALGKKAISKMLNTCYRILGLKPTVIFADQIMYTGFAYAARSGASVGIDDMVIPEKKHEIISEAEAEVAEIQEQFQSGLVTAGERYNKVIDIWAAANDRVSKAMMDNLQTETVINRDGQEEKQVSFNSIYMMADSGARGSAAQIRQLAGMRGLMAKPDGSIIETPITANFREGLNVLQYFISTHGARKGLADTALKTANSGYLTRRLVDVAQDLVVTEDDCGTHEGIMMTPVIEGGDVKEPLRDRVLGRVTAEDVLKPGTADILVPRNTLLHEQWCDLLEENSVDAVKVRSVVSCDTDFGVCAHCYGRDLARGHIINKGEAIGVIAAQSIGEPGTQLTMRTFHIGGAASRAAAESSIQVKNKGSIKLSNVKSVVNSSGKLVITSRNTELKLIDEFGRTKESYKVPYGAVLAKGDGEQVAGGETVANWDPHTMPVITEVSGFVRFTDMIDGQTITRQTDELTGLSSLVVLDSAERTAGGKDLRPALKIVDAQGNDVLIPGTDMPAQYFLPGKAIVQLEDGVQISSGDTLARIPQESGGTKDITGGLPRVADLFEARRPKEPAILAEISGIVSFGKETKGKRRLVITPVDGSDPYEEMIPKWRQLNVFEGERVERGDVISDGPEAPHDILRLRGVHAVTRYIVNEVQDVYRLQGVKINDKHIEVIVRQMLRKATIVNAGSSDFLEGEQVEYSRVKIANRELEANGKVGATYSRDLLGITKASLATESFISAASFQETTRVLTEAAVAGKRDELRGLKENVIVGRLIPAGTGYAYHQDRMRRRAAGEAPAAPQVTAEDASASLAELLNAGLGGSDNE", "T2 sequence (P0A7Z4 whole entry partner)": "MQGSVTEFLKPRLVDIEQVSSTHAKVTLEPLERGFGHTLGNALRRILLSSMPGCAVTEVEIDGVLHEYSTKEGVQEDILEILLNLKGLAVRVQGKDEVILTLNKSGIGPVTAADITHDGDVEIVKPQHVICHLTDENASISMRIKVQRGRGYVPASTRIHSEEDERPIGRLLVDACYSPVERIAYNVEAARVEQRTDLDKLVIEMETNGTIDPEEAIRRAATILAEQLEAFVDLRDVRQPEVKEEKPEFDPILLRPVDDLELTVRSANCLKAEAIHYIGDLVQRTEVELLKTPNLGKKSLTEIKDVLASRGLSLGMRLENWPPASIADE", "T2 sequence (P0A800 2-91 partner limits assumed)": "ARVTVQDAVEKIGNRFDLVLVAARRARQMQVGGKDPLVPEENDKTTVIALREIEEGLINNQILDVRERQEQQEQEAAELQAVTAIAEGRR", "T2 sequence (P00579 whole entry partner)": "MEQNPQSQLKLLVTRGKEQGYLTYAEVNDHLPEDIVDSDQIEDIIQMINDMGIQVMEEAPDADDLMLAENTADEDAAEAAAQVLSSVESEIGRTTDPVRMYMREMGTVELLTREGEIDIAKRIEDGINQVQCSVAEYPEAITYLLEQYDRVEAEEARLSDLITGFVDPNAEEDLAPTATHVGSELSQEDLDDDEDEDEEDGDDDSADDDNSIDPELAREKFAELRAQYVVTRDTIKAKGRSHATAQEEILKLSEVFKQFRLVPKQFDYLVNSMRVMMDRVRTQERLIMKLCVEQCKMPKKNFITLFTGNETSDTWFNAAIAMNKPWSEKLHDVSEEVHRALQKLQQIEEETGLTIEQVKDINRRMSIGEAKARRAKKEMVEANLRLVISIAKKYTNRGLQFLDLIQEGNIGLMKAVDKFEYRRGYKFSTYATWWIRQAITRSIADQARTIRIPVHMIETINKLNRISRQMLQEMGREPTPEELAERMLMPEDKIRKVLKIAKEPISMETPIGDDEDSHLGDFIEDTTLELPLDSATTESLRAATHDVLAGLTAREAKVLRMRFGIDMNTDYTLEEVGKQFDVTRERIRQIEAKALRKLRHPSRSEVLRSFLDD", "assay": "Rolling circle transcription on circular 38mer ssDNA, products visualized by agarose gel electrophoresis", "conditions": "37° C. for 2 hours, 0.5 mM each NTP, concentration of inhibitor not printed (FIG. 2)", "protocol": "(§1) A single-stranded circularized 38mer DNA molecule having the same sequence as the circular 38mer used in Example 2 (Sequence I.D. No. 2) was obtained.\n(§2) A reaction mixture was prepared comprising 5 pmoles of the circularized 38mer DNA molecule, 1 unit of E. coli RNA Polymerase Holoenzyme (EPICENTRE) or of soy germ RNA polymerase II, 0.5 mM of each NTP and a reaction buffer. The reaction mixture was incubated at 37° C. for 2 hours in the presence or absence of rifampicin or α-amanitin. The reaction products were visualized by agarose gel electrophoresis."}, "[3]": {"tested_on": "soy germ RNA polymerase II", "assay": "Rolling circle transcription on circular 38mer ssDNA, products visualized by agarose gel electrophoresis", "conditions": "37° C. for 2 hours, 0.5 mM each NTP, concentration of inhibitor not printed (FIG. 2)", "protocol": "as §1, §2"}}}
{"smiles": "CC[C@H](C)[C@@H]1NC(=O)CNC(=O)[C@@H]2Cc3c([nH]c4cc(O)ccc34)[S+]([O-])C[C@@H](NC(=O)CNC1=O)C(=O)N[C@@H](CC(N)=O)C(=O)N1C[C@H](O)C[C@H]1C(=O)N[C@@H]([C@@H](C)[C@@H](O)CO)C(=O)N2", "note": "(stereo in doubt) [α-amanitin]", "values": [{"measurement": "RNA synthesis in the presence of inhibitor", "setting": "[1]", "value": "RNA was synthesized"}, {"measurement": "Inhibition of RNA polymerase activity", "setting": "[2]", "value": "no inhibition"}, {"measurement": "Inhibition of RNA polymerase activity", "setting": "[3]", "value": "Inhibitory effects"}]}
